Experimental data reported in the supplement of paper PMC10307832.

Assays:
Test in all cases: relative viability (nuclei count vs DMSO), 5 days (fraction); higher = more cells survive
AZD8055 + Phenformin = compound: COc1ccc(-c2ccc3c(N4CCOC[C@@H]4C)nc(N4CCOC[C@@H]4C)nc3n2)cc1CO [AZD8055] + N=C(N)NC(=N)NCCc1ccccc1 [Phenformin] (partner 250 µM)
Method in brief: (§1)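 Lung cancer cell lines, seeded in 1536-well plates, were treated the following day by pin tool with a single drug or with five library-drug doses (not always all listed) in √10 steps on top of a fixed anchor-drug dose. Cells were fixed and nuclei stained in one step after 5 days, and nuclei were counted. Relative viability is the nuclei count for treated wells divided by that for vehicle wells, reported as medians of duplicate plates.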

AZD8055 + OSI-027 = compound: COc1ccc(-c2ccc3c(N4CCOC[C@@H]4C)nc(N4CCOC[C@@H]4C)nc3n2)cc1CO [AZD8055] + COc1cccc2cc(-c3nc([C@H]4CC[C@H](C(=O)O)CC4)n4ncnc(N)c34)[nH]c12 [OSI-027] (partner 0.5 µM)
Method in brief: as §1

AZD8055 + Trametinib = compound: COc1ccc(-c2ccc3c(N4CCOC[C@@H]4C)nc(N4CCOC[C@@H]4C)nc3n2)cc1CO [AZD8055] + CC(=O)Nc1cccc(-n2c(=O)n(C3CC3)c(=O)c3c(Nc4ccc(I)cc4F)n(C)c(=O)c(C)c32)c1 [Trametinib] (partner 0.02 µM)
Method in brief: as §1

AZD8055 + Crizotinib = compound: COc1ccc(-c2ccc3c(N4CCOC[C@@H]4C)nc(N4CCOC[C@@H]4C)nc3n2)cc1CO [AZD8055] + C[C@@H](Oc1cc(-c2cnn(C3CCNCC3)c2)cnc1N)c1c(Cl)ccc(F)c1Cl [Crizotinib] (partner 1 µM)
Method in brief: as §1

Cell Line | relative viability (AZD8055 + Phenformin; first compound 0.01 µM) | relative viability (AZD8055 + Phenformin; first compound 0.03162 µM) | relative viability (AZD8055 + Phenformin; first compound 0.1 µM) | relative viability (AZD8055 + Phenformin; first compound 0.3162 µM) | relative viability (AZD8055 + Phenformin; first compound 1 µM) | relative viability (AZD8055 + OSI-027; first compound 0.01 µM) | relative viability (AZD8055 + OSI-027; first compound 0.03162 µM) | relative viability (AZD8055 + OSI-027; first compound 0.1 µM) | relative viability (AZD8055 + OSI-027; first compound 0.3162 µM) | relative viability (AZD8055 + OSI-027; first compound 1 µM) | relative viability (AZD8055 + Trametinib; first compound 0.01 µM) | relative viability (AZD8055 + Trametinib; first compound 0.03162 µM) | relative viability (AZD8055 + Trametinib; first compound 0.1 µM) | relative viability (AZD8055 + Trametinib; first compound 0.3162 µM) | relative viability (AZD8055 + Trametinib; first compound 1 µM) | relative viability (AZD8055 + Crizotinib; first compound 0.01 µM) | relative viability (AZD8055 + Crizotinib; first compound 0.03162 µM) | relative viability (AZD8055 + Crizotinib; first compound 0.1 µM) | relative viability (AZD8055 + Crizotinib; first compound 0.3162 µM) | relative viability (AZD8055 + Crizotinib; first compound 1 µM)
NCI-H2009 | 0.508 | 0.455 | 0.486 | 0.294 | 0.228 | 0.72 | 0.562 | 0.641 | 0.338 | 0.292 | 0.249 | 0.248 | 0.205 | 0.14 | 0.141 | 1.01 | 1.05 | 0.832 | 0.831 | 0.273
NCI-H2023 | 0.463 | 0.326 | 0.293 | 0.138 | 0.13 | 0.445 | 0.347 | 0.266 | 0.13 | 0.116 | 0.454 | 0.43 | 0.187 | 0.152 | 0.122 | 0.521 | 0.507 | 0.339 | 0.119 | 0.119
NCI-H2085 | 0.739 | 0.67 | 0.417 | 0.34 | 0.314 | 0.744 | 0.852 | 0.551 | 0.34 | 0.355 | 0.535 | 0.326 | 0.282 | 0.246 | 0.295 | 0.927 | 0.805 | 0.639 | 0.359 | 0.315
NCI-H2087 | 0.555 | 0.41 | 0.422 | 0.242 | 0.232 | 0.77 | 0.606 | 0.577 | 0.412 | 0.311 | 0.248 | 0.166 | 0.169 | 0.153 | 0.116 | 1.21 | 0.972 | 0.801 | 0.415 | 0.485
